# Data reported in ChEMBL document CHEMBL1781921, “Concise synthesis and CDK/GSK inhibitory activity of the missing 9-azapaullones” (Bioorg Med Chem Lett, 2010).
# pIC50: −log10 of the molar value.
# Key:
# [1] = Inhibition of M-phase starfish oocytes CDK1/cyclin B assessed as incorporation of [gamma-33P]-ATP into histone H1 substrate after 30 mins by scintillation counting; format: cell-based, Asteroidea; conditions: oocyte
# [2] = biological target: Cyclin-dependent kinase 2/cyclin A (Homo sapiens, UniProt P24941); assay: Inhibition of human recombinant CDK2/cyclin A assessed as incorporation of [gamma-33P]-ATP into histone H1 substrate after 30 mins by scintillation counting; format: protein-complex assay
# CDK9/cyclin T1 = CDK9/cyclin T1 (Homo sapiens, UniProt P50750); assay: Inhibition of human recombinant CDK9/cyclin T expressed in insect cells assessed as incorporation of [gamma-33P]-ATP in to pRB fragment (773 to 928) substrate after 30 mins by scintillation counting
# [3] = biological target: Dual specificity tyrosine-phosphorylation-regulated kinase 1A (Rattus norvegicus, UniProt Q63470); assay: Inhibition of rat recombinant GST-fused DYRK1A expressed in Escherichia coli assessed as assessed as incorporation of [gamma-33P]-ATP into myelin basic protein after 30 mins by scintillation counting
# [4] = biological target: Dual specificity protein kinase CLK1 (Homo sapiens, UniProt P49759); assay: Inhibition of CLK1
# [5] = biological target: T1, Casein kinase I isoform alpha (Sus scrofa, UniProt O19175); assay: Inhibition of porcine brain CK1 assessed as incorporation of [gamma-33P]-ATP into RRKHAAIGpSAYSITA substrate after 30 mins by scintillation counting
# T1 sequence (O19175 whole entry): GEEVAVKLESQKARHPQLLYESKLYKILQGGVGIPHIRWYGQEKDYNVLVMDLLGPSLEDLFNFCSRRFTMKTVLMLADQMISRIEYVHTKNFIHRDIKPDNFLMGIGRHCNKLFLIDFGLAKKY
# [6] = biological target: T2, Glycogen synthase kinase 3 (Plasmodium falciparum (isolate 3D7), UniProt O77344); assay: Inhibition of Plasmodium falciparum GSK3
# T2 sequence (O77344 whole entry): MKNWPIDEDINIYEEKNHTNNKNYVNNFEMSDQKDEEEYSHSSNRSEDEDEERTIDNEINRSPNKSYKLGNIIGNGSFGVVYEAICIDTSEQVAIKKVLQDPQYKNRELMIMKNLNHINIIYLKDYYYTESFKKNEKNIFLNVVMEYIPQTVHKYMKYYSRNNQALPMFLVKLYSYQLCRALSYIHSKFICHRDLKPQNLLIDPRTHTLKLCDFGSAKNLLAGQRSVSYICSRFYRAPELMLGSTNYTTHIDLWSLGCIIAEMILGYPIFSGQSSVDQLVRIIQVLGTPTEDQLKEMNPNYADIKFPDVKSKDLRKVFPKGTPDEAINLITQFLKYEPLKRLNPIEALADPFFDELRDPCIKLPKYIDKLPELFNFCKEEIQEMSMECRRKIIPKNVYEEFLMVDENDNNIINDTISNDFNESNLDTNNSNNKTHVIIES
# [7] = biological target: Cyclin-dependent kinase 5/CDK5 activator 1 (Homo sapiens, UniProt Q00535); assay: Inhibition of human recombinant CDK5/p25 assessed as incorporation of [gamma-33P]-ATP into histone H1 substrate after 30 mins by scintillation counting; format: protein-complex assay
# Sequence of Cyclin-dependent kinase 5/CDK5 activator 1 (Q00535 whole entry): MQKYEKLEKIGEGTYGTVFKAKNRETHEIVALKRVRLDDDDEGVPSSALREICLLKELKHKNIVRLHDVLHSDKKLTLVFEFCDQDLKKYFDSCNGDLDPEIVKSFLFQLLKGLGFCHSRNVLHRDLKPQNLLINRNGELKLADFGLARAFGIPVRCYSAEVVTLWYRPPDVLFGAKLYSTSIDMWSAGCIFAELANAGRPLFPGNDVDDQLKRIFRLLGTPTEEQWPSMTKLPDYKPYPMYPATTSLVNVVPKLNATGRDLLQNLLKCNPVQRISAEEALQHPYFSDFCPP
# Sequence of Cyclin-dependent kinase 5/CDK5 activator 1 (Q15078 whole entry, further chain): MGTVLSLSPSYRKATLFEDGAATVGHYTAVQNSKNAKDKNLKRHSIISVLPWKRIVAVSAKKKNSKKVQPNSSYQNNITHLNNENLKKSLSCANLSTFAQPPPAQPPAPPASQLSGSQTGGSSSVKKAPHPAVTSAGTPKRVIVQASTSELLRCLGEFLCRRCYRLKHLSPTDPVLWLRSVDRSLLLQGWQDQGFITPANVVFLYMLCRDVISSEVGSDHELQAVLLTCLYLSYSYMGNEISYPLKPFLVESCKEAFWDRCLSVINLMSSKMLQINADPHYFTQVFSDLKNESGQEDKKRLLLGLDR
# Sequence of CDK9/cyclin T1 (O60563 whole entry, the tested form may be a part): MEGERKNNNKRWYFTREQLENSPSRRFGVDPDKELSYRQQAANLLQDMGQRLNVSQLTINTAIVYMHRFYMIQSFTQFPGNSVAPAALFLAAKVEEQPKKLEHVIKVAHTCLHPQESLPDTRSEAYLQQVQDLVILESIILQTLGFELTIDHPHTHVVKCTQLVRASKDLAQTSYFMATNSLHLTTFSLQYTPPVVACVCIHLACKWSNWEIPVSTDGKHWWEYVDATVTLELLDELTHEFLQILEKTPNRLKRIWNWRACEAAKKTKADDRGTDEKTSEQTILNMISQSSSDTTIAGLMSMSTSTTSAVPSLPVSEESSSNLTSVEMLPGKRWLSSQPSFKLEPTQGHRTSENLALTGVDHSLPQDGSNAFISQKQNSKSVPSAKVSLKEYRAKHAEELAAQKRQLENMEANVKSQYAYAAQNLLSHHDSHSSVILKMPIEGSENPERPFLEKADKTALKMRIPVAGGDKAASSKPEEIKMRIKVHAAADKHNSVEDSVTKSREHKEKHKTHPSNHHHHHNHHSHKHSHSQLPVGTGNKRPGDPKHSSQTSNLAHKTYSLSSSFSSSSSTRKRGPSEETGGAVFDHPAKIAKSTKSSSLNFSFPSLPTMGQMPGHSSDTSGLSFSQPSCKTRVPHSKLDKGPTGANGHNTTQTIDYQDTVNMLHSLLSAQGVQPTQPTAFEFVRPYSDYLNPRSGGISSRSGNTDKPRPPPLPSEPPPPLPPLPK
# Sequence of CDK9/cyclin T1 (P50750 whole entry, the tested form may be a part): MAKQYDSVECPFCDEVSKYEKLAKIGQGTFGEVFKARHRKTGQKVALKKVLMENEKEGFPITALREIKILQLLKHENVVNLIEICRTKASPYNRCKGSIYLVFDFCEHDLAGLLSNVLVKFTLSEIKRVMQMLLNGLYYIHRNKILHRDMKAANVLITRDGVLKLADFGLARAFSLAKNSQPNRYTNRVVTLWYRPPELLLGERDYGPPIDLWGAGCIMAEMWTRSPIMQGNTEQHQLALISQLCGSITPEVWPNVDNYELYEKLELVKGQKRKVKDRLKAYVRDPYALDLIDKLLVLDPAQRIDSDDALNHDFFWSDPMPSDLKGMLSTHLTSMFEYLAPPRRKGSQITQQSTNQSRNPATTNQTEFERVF
# Sequence of Dual specificity protein kinase CLK1 (P49759 whole entry, canonical isoform): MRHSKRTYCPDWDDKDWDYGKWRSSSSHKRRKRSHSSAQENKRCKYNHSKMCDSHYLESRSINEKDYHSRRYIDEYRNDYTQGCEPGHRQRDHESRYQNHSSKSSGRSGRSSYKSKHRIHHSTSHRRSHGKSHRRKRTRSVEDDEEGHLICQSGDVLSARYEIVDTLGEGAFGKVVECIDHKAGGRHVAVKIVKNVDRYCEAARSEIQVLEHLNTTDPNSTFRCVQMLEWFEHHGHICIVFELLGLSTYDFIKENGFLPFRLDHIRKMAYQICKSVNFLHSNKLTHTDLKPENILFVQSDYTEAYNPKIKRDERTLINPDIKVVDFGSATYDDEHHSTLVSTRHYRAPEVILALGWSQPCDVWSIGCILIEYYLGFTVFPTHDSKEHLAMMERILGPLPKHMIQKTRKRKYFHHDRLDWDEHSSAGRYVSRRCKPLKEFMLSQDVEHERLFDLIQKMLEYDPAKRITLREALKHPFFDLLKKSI
Structure (SMILES),pIC50 [2],pIC50 (CDK9/cyclin T1),pIC50 [3],pIC50 [4],pIC50 [5],pIC50 [6],pIC50 [7],pIC50 [1]
O=C1Cc2c([nH]c3ccc(Br)cc23)-c2ccccc2N1 [KENPAULLONE],,7.19,< 5.00,< 5.00,< 5.00,< 5.00,,6.30
O=C1Cc2c([nH]c3ccncc23)-c2ccccc2N1,5.68,6.66,,< 5.00,< 5.00,< 5.00,5.52,
O=C1Cc2c([nH]c3cc[n+](Cc4ccccc4)cc23)-c2ccccc2N1,< 5.00,5.13,< 5.00,< 5.00,< 5.00,< 5.00,< 5.00,< 5.00

# Further lines, with some results ahead:
pIC50 [2],pIC50 (CDK9/cyclin T1),pIC50 [3],pIC50 [4],pIC50 [5],pIC50 [6],pIC50 [7],Structure (SMILES),pIC50 [1]
5.57,6.09,,,,,,O=C1Cc2c([nH]c3ccccc23)-c2ccccc2N1 [PAULLONE],5.52
5.21,6.62,< 5.00,< 5.00,< 5.00,< 5.00,5.14,O=C1Cc2c([nH]c3cc[n+]([O-])cc23)-c2ccccc2N1,5.24
